Measured values as given in patent publication EP1960421B1, “NEW POLYPEPTIDES AND THEIR USE” (SEDERMA, priority 2005, dated 2007).
Peptide text beside a SMILES is read from it. * marks the point of attachment. Palmitoyl = CCCCCCCCCCCCCCCC(=O)*

Assay: Solubility in the cell culture conditions (medium without foetal calf serum and few solvent)
Type: physicochemical
Conditions: cell culture medium without foetal calf serum and few solvent (DMSO 0.08%)
Procedure: After 3 days of incubation, supernatants were collected and frozen. Survival was estimated on cell layer using a fluorescent probe. Collagen I was estimated using an original direct ELISA method. Results: TGF-b1 should be promoter of Collagen I synthesis. Statistical analysis were performed on Collagen I data (n=3 to n=5 / assay). Results obtained with molecules were compared to negative control. A Student t test for non paired values was used; significativity was obtained if p < 0.05 or p < 0.01. In our cell culture conditions (medium without foetal calf serum and few solvent), Pal-Gly-Lys-Thr-Thr-Lys-Ser was insoluble for concentrations > 5.4 ppm. Table 1: Effect of Pal-Gly-Lys-Thr-Thr-Lys-Ser (SEQ ID NO: 14) on NHDF's Collagen I. Results (from 4 independent experimentations) are in percent compared to the negative control.

insoluble for concentrations: > 5.4 ppm
Compound: CCCCCCCCCCCCCCCC(=O)NCC(=O)N[C@@H](CCCCN)C(=O)N[C@H](C(=O)N[C@H](C(=O)N[C@@H](CCCCN)C(=O)N[C@@H](CO)C(=O)O)[C@@H](C)O)[C@@H](C)O [N-Palmitoyl-Gly-Lys-Thr-Thr-Lys-Ser] (Palmitoyl-GKTTKS-OH)
